BindingDB's records for doi:10.1124/jpet.102.035899 (University of Miami, 2002)
Where “and” joins values, the source holds several entries; their conditions need not be identical. Equal entries are not always repeated.

Columns and labels:
[1] = target: neuronal acetylcholine receptor subunit alpha-2 (Xenopus tropicalis, UniProt A0A6I8T284)
[2] = target: cholinergic receptor, nicotinic, alpha 1 (Muscle) isoform X1 (Xenopus sp., UniProt F6RLM5)
[3] = target: neuronal acetylcholine receptor subunit alpha-4 (Xenopus sp., UniProt A9JRM3)
[4] = target: Cholinergic receptor nicotinic alpha 5 subunit (Xenopus sp., UniProt F7ELS1)
[5] = target: Cholinergic receptor, nicotinic alpha 1 (Xenopus sp., UniProt F6RLA9)
Chain of Cholinergic receptor, nicotinic alpha 1 (F6RLA9 whole entry): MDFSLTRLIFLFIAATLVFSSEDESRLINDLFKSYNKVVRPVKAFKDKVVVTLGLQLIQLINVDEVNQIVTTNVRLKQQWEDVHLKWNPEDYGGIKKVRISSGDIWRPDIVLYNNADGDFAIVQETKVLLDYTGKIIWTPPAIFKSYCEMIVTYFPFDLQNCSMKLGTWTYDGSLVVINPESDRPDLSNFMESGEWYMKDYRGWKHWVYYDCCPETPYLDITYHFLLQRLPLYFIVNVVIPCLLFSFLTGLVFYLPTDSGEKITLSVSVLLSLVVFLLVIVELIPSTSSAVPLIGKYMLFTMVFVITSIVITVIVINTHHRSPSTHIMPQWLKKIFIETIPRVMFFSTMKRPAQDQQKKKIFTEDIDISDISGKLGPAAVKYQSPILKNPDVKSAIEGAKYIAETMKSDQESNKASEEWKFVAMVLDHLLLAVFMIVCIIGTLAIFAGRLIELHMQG

Chain of neuronal acetylcholine receptor subunit alpha-4 (A9JRM3 whole entry): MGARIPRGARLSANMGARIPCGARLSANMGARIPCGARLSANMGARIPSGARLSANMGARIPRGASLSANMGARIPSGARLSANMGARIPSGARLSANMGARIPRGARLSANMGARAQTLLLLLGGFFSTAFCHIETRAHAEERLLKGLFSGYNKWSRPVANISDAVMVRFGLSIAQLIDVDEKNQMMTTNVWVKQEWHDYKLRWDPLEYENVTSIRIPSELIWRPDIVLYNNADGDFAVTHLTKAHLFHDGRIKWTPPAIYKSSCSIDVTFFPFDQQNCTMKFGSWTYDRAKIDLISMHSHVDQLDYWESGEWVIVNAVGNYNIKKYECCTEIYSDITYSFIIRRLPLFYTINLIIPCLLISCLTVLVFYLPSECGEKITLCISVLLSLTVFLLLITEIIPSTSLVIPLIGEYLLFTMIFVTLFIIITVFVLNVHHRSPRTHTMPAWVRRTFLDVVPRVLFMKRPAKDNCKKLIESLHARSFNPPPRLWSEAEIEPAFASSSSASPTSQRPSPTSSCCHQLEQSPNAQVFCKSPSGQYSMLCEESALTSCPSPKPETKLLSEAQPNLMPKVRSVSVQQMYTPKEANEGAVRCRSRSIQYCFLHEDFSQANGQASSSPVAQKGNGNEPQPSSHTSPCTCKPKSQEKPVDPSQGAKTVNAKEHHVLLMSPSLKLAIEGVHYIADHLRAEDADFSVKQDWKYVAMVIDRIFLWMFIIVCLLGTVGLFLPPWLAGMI
Chain of cholinergic receptor, nicotinic, alpha 1 (Muscle) isoform X1 (F6RLM5 whole entry, canonical isoform): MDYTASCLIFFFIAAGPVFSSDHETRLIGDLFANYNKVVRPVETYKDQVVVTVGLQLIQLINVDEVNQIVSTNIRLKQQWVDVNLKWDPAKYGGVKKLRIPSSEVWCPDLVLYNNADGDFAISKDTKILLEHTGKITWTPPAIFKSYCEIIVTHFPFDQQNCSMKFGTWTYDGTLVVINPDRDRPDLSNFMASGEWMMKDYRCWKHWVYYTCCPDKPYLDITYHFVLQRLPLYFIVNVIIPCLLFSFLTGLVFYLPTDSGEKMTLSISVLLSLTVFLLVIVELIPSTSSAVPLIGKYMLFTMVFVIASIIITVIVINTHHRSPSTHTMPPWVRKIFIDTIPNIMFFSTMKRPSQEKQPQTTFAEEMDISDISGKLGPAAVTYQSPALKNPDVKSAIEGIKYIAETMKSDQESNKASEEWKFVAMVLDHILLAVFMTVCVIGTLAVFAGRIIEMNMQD
Chain of Cholinergic receptor nicotinic alpha 5 subunit (F7ELS1 whole entry): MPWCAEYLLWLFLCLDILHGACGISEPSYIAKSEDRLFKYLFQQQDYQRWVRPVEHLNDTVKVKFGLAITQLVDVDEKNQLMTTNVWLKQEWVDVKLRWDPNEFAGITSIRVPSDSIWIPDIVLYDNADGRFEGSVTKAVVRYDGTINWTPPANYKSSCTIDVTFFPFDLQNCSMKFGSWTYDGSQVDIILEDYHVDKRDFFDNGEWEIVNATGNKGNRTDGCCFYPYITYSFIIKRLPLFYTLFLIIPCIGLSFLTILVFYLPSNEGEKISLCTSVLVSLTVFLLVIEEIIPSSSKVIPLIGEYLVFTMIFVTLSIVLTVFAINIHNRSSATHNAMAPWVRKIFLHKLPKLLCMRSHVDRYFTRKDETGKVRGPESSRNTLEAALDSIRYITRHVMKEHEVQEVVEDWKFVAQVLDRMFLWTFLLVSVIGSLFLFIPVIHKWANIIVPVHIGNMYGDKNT
Chain of neuronal acetylcholine receptor subunit alpha-2 (A0A6I8T284 whole entry, canonical isoform): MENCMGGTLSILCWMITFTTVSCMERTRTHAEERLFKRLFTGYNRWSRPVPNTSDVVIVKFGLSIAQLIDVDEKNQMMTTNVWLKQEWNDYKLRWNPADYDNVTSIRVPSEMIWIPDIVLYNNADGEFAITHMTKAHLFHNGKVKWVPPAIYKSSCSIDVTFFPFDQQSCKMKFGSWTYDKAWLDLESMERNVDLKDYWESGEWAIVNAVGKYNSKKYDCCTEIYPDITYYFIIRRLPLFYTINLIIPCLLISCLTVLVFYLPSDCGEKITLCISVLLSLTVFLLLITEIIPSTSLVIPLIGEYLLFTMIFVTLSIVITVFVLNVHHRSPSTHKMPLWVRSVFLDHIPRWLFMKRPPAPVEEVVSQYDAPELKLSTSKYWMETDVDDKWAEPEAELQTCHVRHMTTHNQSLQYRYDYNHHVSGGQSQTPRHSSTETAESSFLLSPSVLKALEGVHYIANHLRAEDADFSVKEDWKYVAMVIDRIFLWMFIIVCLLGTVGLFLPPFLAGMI

SMILES	Ki [1]	Ki [2] [nM]	Ki [3] [nM]	Ki [4] [nM]	Ki [5] [nM]
O=c1ccc([C@H]2CC3CCC2N3)c[nH]1 (some centres not stated)	100 nM	100	100		
Clc1ccc([C@H]2CC3CCC2N3)cn1 (stereo partly drawn) [2-(6-Chloro-pyridin-3-yl)-7-aza-bicyclo[2.2.1]heptane(+/-) epibatidine]	87 nM				
Brc1ccc([C@H]2CC3CCC2N3)cn1 (some centres not stated) [NBEP]	0.013 nM and 0.055 nM	0.004	0.01	0.22	0.044
CN(C)c1ccc([C@H]2CC3CCC2N3)cn1 (some centres not stated) [NDMNEP]	100 nM	100	100		
c1cncc([C@H]2CC3CCC2N3)c1 (some centres not stated) [NEP]		0.0031	0.0085	11	3.2
Fc1ccc([C@H]2CC3CCC2N3)cn1 (some centres not stated) [NFEP]		0.0038	0.0092	2.1	0.48
Nc1ccc([C@H]2CC3CCC2N3)cn1 (some centres not stated) [NNEP]		0.077	0.35	7.2	4.3
O=S(=O)(Oc1ccc([C@H]2CC3CCC2N3)cn1)C(F)(F)F (some centres not stated) [NTEP]	10 nM	100	100		
